# Results: patent publication US10538555B2, “Macrocyclic inhibitors of the PD-1/PD-L1 and CD80(B7-1)/PD-L1 protein/protein interactions” (BRISTOL-MYERS SQUIBB COMPANY, priority 2014, dated 2020)
# Where a SMILES comes first, the peptide text is derived from it. Bridges are numbered along the chain shown (N, C = ends). [ ]: non-standard residue; d: D form. Phe(3,4,5-F3) = N[C@@H](Cc1cc(F)c(F)c(F)c1)C(=O)O; NMeF = CN[C@@H](Cc1ccccc1)C(=O)O; dHyp = O=C(O)[C@H]1C[C@H](O)CN1; NMeNle = CCCC[C@H](NC)C(=O)O; dPip = O=C(O)[C@H]1CCCCN1; hSer = N[C@@H](CCO)C(=O)O; dThz = O=C(O)[C@H]1CSCN1; Sar = CNCC(=O)O
# Biological target: T1, Human PD-L1/PD-1 (Homo sapiens, UniProt Q9NZQ7)
# T1 construct: TVMV protease cleavage site (C); made in house; host or cells: HEK293T cells
# Test: HTRF Human PD-L1/PD-1 binding assay (PD-1-Ig/PD-L1-His)
# Conditions: PD-L1-His 10 nM, PD-1-Ig 20 nM; class symbol; read-out: HTRF Human PD-L1/PD-1 Binding Assay IC50 Range
# Method in brief: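 HTRF competition using HEK293T-expressed human PD-1(25-167)-Ig at 20 nM and PD-L1(18-239)-His at 10 nM, compound incubated first with PD-L1 for 15 min, then with PD-1 for 15 min. Signal read as 665/620 nm ratio 30 min after adding Eu anti-Ig and APC anti-His antibodies.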
# T1 sequence (Q9NZQ7 with tags, fused parts or gaps): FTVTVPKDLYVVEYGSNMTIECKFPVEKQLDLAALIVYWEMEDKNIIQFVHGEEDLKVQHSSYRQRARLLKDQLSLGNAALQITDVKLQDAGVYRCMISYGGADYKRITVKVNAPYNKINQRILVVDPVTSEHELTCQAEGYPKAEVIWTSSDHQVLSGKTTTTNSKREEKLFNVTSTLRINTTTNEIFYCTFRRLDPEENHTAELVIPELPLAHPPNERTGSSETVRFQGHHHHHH
row,IC50 [nM],SMILES
1,10 to 99.9,CCCC[C@H]1C(=O)N2C[C@@H](O)C[C@@H]2C(=O)N[C@@H](CC(=O)O)C(=O)N[C@@H](C)C(=O)N(C)[C@@H](Cc2ccccc2)C(=O)N[C@@H](Cc2ccc(O)cc2)C(=O)N(C)CC(=O)N[C@@H](Cc2c[nH]c3ccccc23)C(=O)N[C@@H](Cc2ccc(O)cc2)C(=O)N[C@@H](CC(C)C)C(=O)N[C@H](C(=O)NCC(N)=O)CSCC(=O)N[C@@H](Cc2ccccc2)C(=O)N(C)[C@@H](Cc2ccccc2)C(=O)N1C [Example 10086] ({CH2CO}-F[NMeF][NMeNle][dHyp]DA[NMeF]Y[Sar]WYLCG-NH2; thioether N-13)
2,10 to 99.9,CCCC[C@H]1C(=O)N2CCC[C@@H]2C(=O)N[C@@H](CC(=O)O)C(=O)N[C@@H](C)C(=O)N(C)[C@@H](Cc2ccccc2)C(=O)N[C@@H](Cc2ccc(O)cc2)C(=O)N2CCCC[C@@H]2C(=O)N[C@@H](Cc2c[nH]c3ccccc23)C(=O)N[C@@H](Cc2ccc(O)cc2)C(=O)N[C@@H](CC(C)C)C(=O)N[C@H](C(=O)NCC(N)=O)CSCC(=O)N[C@@H](Cc2ccccc2)C(=O)N(C)[C@@H](Cc2ccccc2)C(=O)N1C [Example 10087] ({CH2CO}-F[NMeF][NMeNle][dP]DA[NMeF]Y[dPip]WYLCG-NH2; thioether N-13)
3,10 to 99.9,CCCC[C@H]1C(=O)N2CCC[C@@H]2C(=O)N[C@@H](CC(=O)O)C(=O)N[C@@H](C)C(=O)N(C)[C@@H](Cc2ccccc2)C(=O)N[C@@H](Cc2ccc(O)cc2)C(=O)N2CSC[C@@H]2C(=O)N[C@@H](Cc2c[nH]c3ccccc23)C(=O)N[C@@H](Cc2ccc(O)cc2)C(=O)N[C@@H](CC(C)C)C(=O)N[C@H](C(=O)NCC(N)=O)CSCC(=O)N[C@@H](Cc2ccccc2)C(=O)N(C)[C@@H](Cc2ccccc2)C(=O)N1C [Example 10088] ({CH2CO}-F[NMeF][NMeNle][dP]DA[NMeF]Y[dThz]WYLCG-NH2; thioether N-13)
4,1 to 9.9,"CCCC[C@H]1C(=O)N2CCC[C@@H]2C(=O)N[C@@H](CC(=O)O)C(=O)N[C@@H](C(C)C)C(=O)N(C)[C@@H](Cc2ccccc2)C(=O)N[C@@H](CCC(=O)O)C(=O)N2CSC[C@@H]2C(=O)N[C@@H](Cc2c[nH]c3ccccc23)C(=O)N[C@@H](Cc2ccc(O)cc2)C(=O)N[C@@H](CC(C)C)C(=O)N[C@H](C(=O)NCC(N)=O)CSCC(=O)N[C@@H](Cc2cc(F)c(F)c(F)c2)C(=O)N(C)[C@@H](Cc2ccccc2)C(=O)N1C [Example 10090] ({CH2CO}-[Phe(3,4,5-F3)][NMeF][NMeNle][dP]DV[NMeF]E[dThz]WYLCG-NH2; thioether N-13)"

# Continued, molecule first:
row,SMILES,IC50 [nM]
1,CCCC[C@H]1C(=O)N2CCCC[C@@H]2C(=O)N[C@@H](CC(=O)O)C(=O)N[C@@H](C)C(=O)N(C)[C@@H](Cc2ccccc2)C(=O)N[C@@H](Cc2ccc(O)cc2)C(=O)N(C)CC(=O)N[C@@H](Cc2c[nH]c3ccccc23)C(=O)N[C@@H](Cc2ccc(O)cc2)C(=O)N[C@@H](CC(C)C)C(=O)N[C@H](C(=O)NCC(N)=O)CSCC(=O)N[C@@H](Cc2ccccc2)C(=O)N(C)[C@@H](Cc2ccccc2)C(=O)N1C [Example 10084] ({CH2CO}-F[NMeF][NMeNle][dPip]DA[NMeF]Y[Sar]WYLCG-NH2; thioether N-13),100 to 990
2,CCCC[C@H]1C(=O)N2CSC[C@@H]2C(=O)N[C@@H](CC(=O)O)C(=O)N[C@@H](C)C(=O)N(C)[C@@H](Cc2ccccc2)C(=O)N[C@@H](Cc2ccc(O)cc2)C(=O)N(C)CC(=O)N[C@@H](Cc2c[nH]c3ccccc23)C(=O)N[C@@H](Cc2ccc(O)cc2)C(=O)N[C@@H](CC(C)C)C(=O)N[C@H](C(=O)NCC(N)=O)CSCC(=O)N[C@@H](Cc2ccccc2)C(=O)N(C)[C@@H](Cc2ccccc2)C(=O)N1C [Example 10085] ({CH2CO}-F[NMeF][NMeNle][dThz]DA[NMeF]Y[Sar]WYLCG-NH2; thioether N-13),100 to 990
3,"CCCC[C@H]1C(=O)N2CCC[C@@H]2C(=O)N[C@@H](CO)C(=O)N[C@@H](C(C)C)C(=O)N(C)[C@@H](Cc2ccccc2)C(=O)N[C@@H](Cc2ccc(O)cc2)C(=O)N2CSC[C@@H]2C(=O)N[C@@H](Cc2c[nH]c3ccccc23)C(=O)N[C@@H](Cc2ccc(O)cc2)C(=O)N[C@@H](CC(C)C)C(=O)N[C@H](C(=O)NCC(N)=O)CSCC(=O)N[C@@H](Cc2cc(F)c(F)c(F)c2)C(=O)N(C)[C@@H](Cc2ccccc2)C(=O)N1C [Example 10089] ({CH2CO}-[Phe(3,4,5-F3)][NMeF][NMeNle][dP]SV[NMeF]Y[dThz]WYLCG-NH2; thioether N-13)",1 to 9.9
4,"CCCC[C@H]1C(=O)N2CCC[C@@H]2C(=O)N[C@@H](CC(=O)O)C(=O)N[C@@H](C(C)C)C(=O)N(C)[C@@H](Cc2ccccc2)C(=O)N[C@@H](Cc2ccc(O)cc2)C(=O)N2CSC[C@@H]2C(=O)N[C@@H](Cc2c[nH]c3ccccc23)C(=O)N[C@@H](Cc2ccc(O)cc2)C(=O)N[C@@H](CC(C)C)C(=O)N[C@H](C(=O)NCC(N)=O)CSCC(=O)N[C@@H](Cc2cc(F)c(F)c(F)c2)C(=O)N(C)[C@@H](Cc2ccccc2)C(=O)N1C [Example 10092] ({CH2CO}-[Phe(3,4,5-F3)][NMeF][NMeNle][dP]DV[NMeF]Y[dThz]WYLCG-NH2; thioether N-13)",1 to 9.9
5,"CCCC[C@H]1C(=O)N2CSC[C@@H]2C(=O)N[C@@H](CC(=O)O)C(=O)N[C@@H](C(C)C)C(=O)N(C)[C@@H](Cc2ccccc2)C(=O)N[C@@H](Cc2ccc(O)cc2)C(=O)N2CCC[C@@H]2C(=O)N[C@@H](Cc2c[nH]c3ccccc23)C(=O)N[C@@H](Cc2ccc(O)cc2)C(=O)N[C@@H](CC(C)C)C(=O)N[C@H](C(=O)NCC(N)=O)CSCC(=O)N[C@@H](Cc2cc(F)c(F)c(F)c2)C(=O)N(C)[C@@H](Cc2ccccc2)C(=O)N1C [Example 10093] ({CH2CO}-[Phe(3,4,5-F3)][NMeF][NMeNle][dThz]DV[NMeF]Y[dP]WYLCG-NH2; thioether N-13)",1 to 9.9
6,"CCCC[C@H]1C(=O)N2CCC[C@@H]2C(=O)N[C@@H](CC(=O)O)C(=O)N[C@@H](C(C)C)C(=O)N(C)[C@@H](Cc2ccccc2)C(=O)N[C@@H](Cc2ccc(O)cc2)C(=O)N2CCC[C@@H]2C(=O)N[C@@H](Cc2c[nH]c3ccccc23)C(=O)N[C@@H](Cc2ccc(O)cc2)C(=O)N[C@@H](CO)C(=O)N[C@H](C(=O)NCC(N)=O)CSCC(=O)N[C@@H](Cc2cc(F)c(F)c(F)c2)C(=O)N(C)[C@@H](Cc2ccccc2)C(=O)N1C [Example 10094] ({CH2CO}-[Phe(3,4,5-F3)][NMeF][NMeNle][dP]DV[NMeF]Y[dP]WYSCG-NH2; thioether N-13)",1 to 9.9
7,"CCCC[C@H]1C(=O)N2CCC[C@@H]2C(=O)N[C@@H](CC(=O)O)C(=O)N[C@@H](C(C)C)C(=O)N(C)[C@@H](Cc2ccccc2)C(=O)N[C@@H](Cc2ccc(O)cc2)C(=O)N2CCC[C@@H]2C(=O)N[C@@H](Cc2c[nH]c3ccccc23)C(=O)N[C@@H](Cc2ccc(O)cc2)C(=O)N[C@@H](CCO)C(=O)N[C@H](C(=O)NCC(N)=O)CSCC(=O)N[C@@H](Cc2cc(F)c(F)c(F)c2)C(=O)N(C)[C@@H](Cc2ccccc2)C(=O)N1C [Example 10095] ({CH2CO}-[Phe(3,4,5-F3)][NMeF][NMeNle][dP]DV[NMeF]Y[dP]WY[hSer]CG-NH2; thioether N-13)",1 to 9.9

# Same assay, conditions: PD-L1-His 10 nM, PD-1-Ig 20 nM; read-out: HTRF Human PD-L1/PD-1 Binding Assay IC50
row,IC50 [nM],SMILES
1,2.5,"CCCC[C@H]1C(=O)N2CCC[C@@H]2C(=O)N[C@@H](CC(=O)O)C(=O)N[C@@H](C(C)C)C(=O)N(C)[C@@H](Cc2ccccc2)C(=O)N[C@@H](CC(=O)O)C(=O)N2CSC[C@@H]2C(=O)N[C@@H](Cc2c[nH]c3ccccc23)C(=O)N[C@@H](Cc2ccc(O)cc2)C(=O)N[C@@H](CC(C)C)C(=O)N[C@H](C(=O)NCC(N)=O)CSCC(=O)N[C@@H](Cc2cc(F)c(F)c(F)c2)C(=O)N(C)[C@@H](Cc2ccccc2)C(=O)N1C [Example 10091] ({CH2CO}-[Phe(3,4,5-F3)][NMeF][NMeNle][dP]DV[NMeF]D[dThz]WYLCG-NH2; thioether N-13)"
